Reference: US20240132478A1, “COCRYSTAL” (Syndesi Therapeutics SA, priority 2020, published 2024)
Where two headings read alike, the source gives them in different places.

Tests used:
Format in all cases: physicochemical
[1] = Gravimetric Vapour Sorption (GVS) moisture sorption isotherm; settings: for GVS reversible water uptake: between 0-90% RH; for Hygroscopicity: in words, by GVS
Description: Sorption isotherms were obtained using a SMS DVS Intrinsic moisture sorption analyser, controlled by DVS Intrinsic Control software. The sample temperature was maintained at 25° C. by the instrument controls. The humidity was controlled by mixing streams of dry and wet nitrogen, with a total flow rate of 200 ml/min. The relative humidity was measured by a calibrated Rotronic probe (dynamic range of 1.0-100% RH), located near the sample. The weight change, (mass relaxation) of the sample as a function of % RH was constantly monitored by a microbalance (accuracy ±0.005 mg). Typically, 5-30 mg of sample was placed in a tared mesh stainless steel basket under ambient conditions. The sample was loaded and unloaded at 40% RH and 25° C. (typical room conditions). A moisture sorption isotherm was performed as outlined below (2 scans per complete cycle). The standard isotherm was performed at 25° C. at 10% RH intervals over a 0-90% RH range. Typically, a double cycle (4 scans) was carried out. Data analysis was carried out within Microsoft Excel using the DVS Analysis Suite.
The sample was recovered after completion of the isotherm and re-analysed by XRPD.

[2] = Differential Scanning Calorimetry (DSC); settings: for Melting point (onset): * = multiple thermal events; for DSC Endotherm, enthalpy / DSC Endotherm, onset temp: single endotherm; for DSC Endotherm, onset temp: followed by exothermic event
Description: TA Instruments Q2000: DSC data were collected on a TA Instruments Q2000 equipped with a 50 position auto sampler. Typically, 0.5 3 mg of each sample, in a pin-holed aluminium pan, was heated at 10° C./min from 25° C. to 235° C. A purge of dry nitrogen at 50 mlmL/min was maintained over the sample. The instrument control software was Advantage for Q Series and Thermal Advantage and the data were analysed using Universal Analysis or TRIOS.
TA Instruments Discovery DSC: DSC data were also collected on a TA Instruments Discovery DSC equipped with a 50 position auto-sampler. Typically, 0.5 3 mg of each sample, in a pin-holed aluminium pan, was heated at 10° C./min from 25° C. to 235° C. A purge of dry nitrogen at 50 mlmL/min was maintained over the sample. The instrument control software was TRIOS and the data were analysed using TRIOS or Universal Analysis.

[3] = Variable temperature XRPD (VT-XRPD)
Description: Non-ambient conditions: For variable temperature (VT-XRPD) experiments samples were mounted on an Anton Paar DHS 900 hot stage at ambient conditions. The sample was then heated to the appropriate temperature at 10° C./min and subsequently held isothermally for 2 minutes before data collection. Samples were prepared and analysed on a silicon wafer mounted to the hot stage using a heat-conducting paste.

[4] = Storage stability at elevated temperature and humidity (XRPD and HPLC purity after storage)
[5] = Thermo-Gravimetric Analysis (TGA)
Description: TA Instruments Discovery TGA: TGA data were collected on a TA Instruments Discovery TGA, equipped with a 25 position auto-sampler. Typically, 5 10 mg of each sample was loaded onto a pre-tared aluminium DSC pan and heated at 10° C./min from ambient temperature to 350° C. A nitrogen purge at 25 mlmL/min was maintained over the sample. The instrument control software was TRIOS and the data were analysed using Universal Analysis.

[6] = Storage stability at elevated temperature and humidity (XRPD and HPLC purity after storage); settings: for Storage: XRPD pattern: 40° C./75% RH, after 7 days; for Stability at 25° C./97% RH and 40° C./75% RH: XRPD after storage; for Stability to increased temperature and humidity: in words, increased temperature (40° C.) and high humidity; for XRPD after storage at 40° C./75% RH: 7 days
Description: Bruker AXS D8 Advance: XRPD diffractograms were collected on a Bruker D8 diffractometer using Cu Kα radiation (40 kV, 40 mA) and a θ-2θ goniometer fitted with a Ge monochromator. The incident beam passes through a 2.0 mm divergence slit followed by a 0.2 mm anti-scatter slit and knife edge. The diffracted beam passes through an 8.0 mm receiving slit with 2.5° Soller slits followed by the Lynxeye Detector. The software used for data collection and analysis was Diffrac Plus XRD Commander and Diffrac Plus EVA respectively. Samples were run under ambient conditions as flat plate specimens using powder as received. The sample was prepared on a polished, zero-background (510) silicon wafer by gently pressing onto the flat surface or packed into a cut cavity. The sample was rotated in its own plane. The details of the data collection method are: • Angular range: 2 to 42° 2θ • Step size: 0.05° 2θ • Collection time: 0.5 s/step (total collection time: 6.40 min)
Purity analysis was performed on an Agilent Ip 100/Infinity 111260 series system equipped with a diode array detector and using OpenLAB software. The full method details are provided below:
The three potential cocrystals were characterised using DSC, 1H NMR, TGA and by evaluating their stability with XRPD after 7 or 8 days of being stored at 40° C./75% RH. All three cocrystals were unchanged by XRPD after storage at 40° C./75% RH and none had significant amounts of solvent present (Table 28). The 4 HBA cocrystal appeared to have a similar melt to the starting material (ca. 85° C.). […] All initially appeared to have a 1:1 stoichiometry. […]

| SMILES | Hygroscopicity (GVS) [1] | XRPD post-GVS [1] | GVS reversible water uptake [1] | Hygroscopicity [1] | Melting point (onset) [2] | DSC Endotherm, enthalpy [2] [J/g] | DSC Endotherm, onset temp [2] [°C] | VT-XRPD pattern on heating [3] | VT-XRPD temperature at which sample melted [3] | Storage: XRPD pattern ([4]; 25° C./97% RH, after 7 days) | Storage: XRPD pattern [6] | Stability at 25° C./97% RH and 40° C./75% RH [6] | Stability to increased temperature and humidity [6] | XRPD after storage at 40° C./75% RH [6] | further results |
| --- | --- | --- | --- | --- | --- | --- | --- | --- | --- | --- | --- | --- | --- | --- | --- |
| O=C(O)c1ccc(O)cc1O.O=C(O)c1ccc(O)cc1O.O=C1C[C@H](c2cc(F)c(F)c(F)c2)CN1Cn1ncnc1Cl [2,4-DHBA Pattern 1] | Slightly hygroscopic | Some changes by XRPD post-GVS | 0.53% w/w reversible water uptake between 0-90% | only slightly hygroscopic | 138.2 °C | 91 | 138.2 | XRPD pattern remained unchanged until the sample | melted at ca. 139 °C | XRPD pattern unchanged after 7 days | XRPD pattern unchanged after 7 days | Stable, | remains stable | – | XRPD post-GVS ([1]; sample re-analysed by XRPD after isotherm): slight changes; Storage: Purity ([4]; 25° C./97% RH, after ca 1 month on storage): Purity: 99.7% (after ca 1 month on storage); Storage: Purity ([4]; 40° C./75% RH, after ca 1 month on storage): Purity: 97.9% (after ca 1 month on storage); XRPD after storage at 40° C./75% RH ([4]; 8 days): 8 days: Unchanged; TGA mass loss prior to dissociation/degradation [5]: No significant mass loss prior to dissociation/; TGA w/w loss on dissociation/degradation ([5]; followed by continual decomposition): degradation then 43.4% w/w loss followed by continual |
| O=C(O)c1cc(O)cc(O)c1.O=C1C[C@@H](c2cc(F)c(F)c(F)c2)CN1Cn1ncnc1Cl [ARP-1725-71-02C] | – | – | – | – | 113.3 °C | – | – | – | – | – | – | Stable, | – | – | – |
| O=C(O)c1cc(O)cc(O)c1.O=C1C[C@H](c2cc(F)c(F)c(F)c2)CN1Cn1ncnc1Cl [3,5-DHBA Pattern 1] | Slightly hygroscopic | Unchanged by XRPD post-GVS | ~0.2% w/w reversible water uptake | only slightly hygroscopic | – | 85 | 113.3 | XRPD pattern remained unchanged until | it melted at ca. 113 °C | XRPD Pattern unchanged after 7 days | XRPD Pattern unchanged after 7 days | – | remains stable | 7 days: Unchanged | Storage: Purity ([4]; 25° C./97% RH, 7 days): Purity: 99.9%; Storage: Purity ([4]; 40° C./75% RH, 7 days): Purity: 99.7%; TGA onset of dissociation/decomposition [5]: ca. 120 °C |
| O=C(O)c1ccc(O)cc1.O=C1C[C@H](c2cc(F)c(F)c(F)c2)CN1Cn1ncnc1Cl [4-HBA Pattern 1] | Non-hygroscopic | RH, unchanged by XRPD post-GVS | ~0.11% w/w reversible water uptake between 0-90% | non-hygroscopic | 87.7° C.* | – | – | XRPD pattern changes slightly on heating between 60 °C | – | – | – | Stable, | stable | 7 days: Unchanged | DSC 1st Endotherm, enthalpy [2]: 8 J/g; DSC 1st Endotherm, onset temp [2]: 70.6 °C; DSC 2nd Endotherm, enthalpy [2]: 56 J/g; DSC 2nd Endotherm, onset temp [2]: 87.7 °C; DSC Broad exotherm, enthalpy [2]: 19 J/g; DSC Broad exotherm, onset temp [2]: 110 °C; Storage: Purity ([4]; 25° C./97% RH, 11 days): Purity: 99.9%; Storage: XRPD pattern ([4]; 25° C./97% RH, after 11 days): XRPD pattern unchanged after 11 days; Storage: Purity ([4]; 40° C./75% RH, 11 days): Purity: 99.7%; Storage: XRPD pattern ([4]; 40° C./75% RH, after 11 days): XRPD pattern unchanged after 11 days; TGA w/w loss ([5]; from 114-268° C., followed by continual decomposition): 29.0% w/w loss from 114-268 °C |
